Assay [1] concerns Enterobacter aerogenes (Ea). Put plainly: MIC in nutrient agar, Enterobacter aerogenes. Format: cell-based, Enterobacter aerogenes ATCC 13048. The procedure:
(§1) The minimum inhibitory concentration (MIC) for the compounds listed in Table I is determined for 9 bacteria, using nutrient agar, and 7 yeast and fungi, using malt yeast agar. A one percent solution of the test compound is prepared in a mixture of acetone and water. Nutrient agar is prepared at pH 6.8, representing a neutral medium, and at pH 8.2, representing an alkaline medium. The nutrient agars are prepared by adding 23 g of nutrient agar to one-liter of deionized water. In addition, the alkaline medium is prepared by adjusting a 0.04M solution of N-[tris-(hydroxymethyl)methyl]-glycine buffered deionized water with concentrated sodium hydroxide to a pH of […]. Malt yeast agar is prepared by adding 3 g yeast extract and 45 g malt agar per liter of deionized water. The specific agar is dispensed in 30 ml aliquots into 25×200 mm test tubes, capped and autoclaved for 15 minutes at 115° C. The test tubes containing the agar are cooled in a water bath until the temperature of the agar is 48° C. Then, an appropriate amount of the one percent solution of the test compound is added (except in the controls where no compound is added) to the respective test tubes so that the final concentrations are 500, 250, 100, 50, 25, 10, 5, 2.5, 1.0 and zero parts per million of the test compound in the agar, thus having a known concentration of test compound dispersed therein. The contents of the test tubes are then transferred to respective petri plates. After drying for 24 hours, the petri plates containing nutrient agar are inoculated with bacteria and those containing malt yeast agar are inoculated with yeast and fungi.
(§2) The inoculation with bacteria is accomplished by using the following procedure. Twenty-four hour-cultures of each of the bacteria are prepared by incubating the respective bacteria in tubes containing nutrient broth for 24 hours at 30° C. in a shaker. Dilutions of each of the 24 hour-cultures are made so that nine separate suspensions (one for each of the nine test bacteria) are made, each containing 10^8 colony forming units (CFU) per ml of suspension of a particular bacteria. Aliquots of 0.3 ml of each of the bacterial suspensions are used to fill the individual wells of Steer's Replicator. For each microbial suspension, 0.3 ml was used to fill three wells (i.e., three wells of 0.3 ml each) so that for the nine different bacteria, 27 wells are filled. The Steer's Replicator is then used to inoculate both the neutral and alkaline pH nutrient agar petri plates.
(§3) The inoculated petri plates are incubated at 30° C. for 48 hours and then read to determine if the test compound which is incorporated into the agar prevented growth of the respective bacteria.
(§4) Table II lists the bacteria, yeast and fungi used in the MIC test described above along with their respective American Type Culture Collection (ATCC) identification numbers.
(§5) The following MIC and MEC antimicrobial tests, whose results are shown in Tables XIII-XVII, are performed using the same methods as described hereinabove.

Another assay has as its system Escherichia coli (Ec). In words: MIC in nutrient agar, Escherichia coli. The assay is classed as cell-based, Escherichia coli ATCC 11229. On the procedure:
as §1, §2, §3, §4, §5

Assay [2] has as its system Salmonella choleraesuis (Sc). In words: MIC in nutrient agar, Salmonella choleraesuis. The assay is classed as cell-based, Salmonella choleraesuis ATCC 10708. On the procedure:
as §1, §2, §3, §4, §5

The subject of another assay is Aspergillus niger (An). In words: MIC in malt yeast agar, Aspergillus niger. The assay is classed as cell-based, Aspergillus niger ATCC 16404. The settings on record: read-out: Minimum Inhibitory Concentration, An. On the procedure:
as §1
(§6) The inoculation with the yeast and fungi is accomplished as follows. Cultures of yeast and fungi are incubated for seven days on malt yeast agar at 30° C. These cultures are used to prepare suspensions by the following procedure. A suspension of each organism is prepared by adding 10 ml of sterile saline and 10 microliters of octylphenoxy polyethoxy ethanol (TRITON® X-100, a trademark of Rohm & Haas Company) to the agar slant of yeast or fungi. The sterile saline/octylphenoxy polyethoxy ethanol solution is then agitated with a sterile swab to suspend the microorganism grown on the slant. Each resulting suspension is diluted into sterile saline (1 part suspension: 9 parts sterile saline). Aliquots of these dilutions are placed in individual wells of Steer's Replicator and petri plates inoculated as previously described. The petri plates are incubated at 30° C. and read after 48 hours for yeast and 72 hours for fungi.
as §4, §5

The test system of assay [3] is Penicillium chrysogenum (Pc). Put plainly: MIC in malt yeast agar, Penicillium chrysogenum. Format: cell-based, Penicillium chrysogenum ATCC 9480. The settings on record: read-out: Minimum Inhibitory Concentration, Pc. On the procedure:
as §1, §6, §4, §5

Assay [4] concerns Saccharomyces cerevisiae (Sc). Put plainly: MIC in malt yeast agar, Saccharomyces cerevisiae. The assay is classed as cell-based, Saccharomyces cerevisiae ATCC 4105. To be noted: read-out: Minimum Inhibitory Concentration, Sc. On the procedure:
as §1, §6, §4, §5

In assay [5] the test system is mixture of the bacterial organisms listed in Table II. In words: Multiple Challenge Test in tape joint formulation. The assay is classed as cell-based, bacteria listed in Table II. To be noted: 10 challenges. On the procedure: (§7) Additionally, the ability of the compounds of Table I to serve as preservatives in a variety of formulated industrial, household, and commercial products is tested using a Multiple Challenge Test Protocol. In this test, the formulations include a styrene-butadiene latex, a tape joint, a hand lotion, and a shampoo. The styrene-butadiene latex test formulation used is Latex DL 238A, available from The Dow Chemical Company. The compositions of the tape joint, hand lotion and shampoo test formulations can be found in Tables V-VII.
(§8) The formulations are separated into 50 g aliquots and placed in sterile bottles. An appropriate amount of a fresh one percent stock solution of the test compound in acetone-water is added to achieve the desired final concentrations. A small portion of each of the test formulations is streaked onto Tryptic Soy Agar (TSA) petri plates using sterile cotton swabs to ensure that the formulations are sterile. If the formulation is sterile, then it is inoculated with 0.1 ml of a mixture of equal aliquots of the 24 hour cultures of each of the bacterial organisms listed in Table II. The test formulations are then incubated at 30° C. After 24 hours, each sample is streaked onto a TSA petri plate using a sterile swab. All plates are then incubated at 30° C. for 48 hours and then rated for microbial growth using the rating system listed in Table VIII. Samples with a rating of 3 or less are reinoculated as described in the procedure for the first inoculation. Samples with a rating of 4 or greater are not reinoculated but after another 24 hours are restreaked on TSA agar.
(§9) The normal interpretation of the results is that a concentration of the antimicrobial being tested is considered to be effective if no ratings greater than a 3 are observed throughout the 10 challenges. The Minimum Effective Concentration (MEC), which is used to compare the activity of the antimicrobial additives in the end-use formulations, is the minimum level that is effective under the conditions of the Multiple Challenge Test.

Assay [6] shares this test system. Put plainly: Multiple Challenge Test in shampoo formulation. To be noted: 10 challenges. The assay is classed as cell-based, bacteria listed in Table II. The procedure: as §7, §8, §9
A further assay has as its system Candida albicans (Ca). In words: MIC in malt yeast agar, Candida albicans. The assay is classed as cell-based, Candida albicans ATCC 10231. The settings on record: read-out: Minimum Inhibitory Concentration, Ca. The procedure:
as §1, §6, §4, §5

Setting [7] is: Klebsiella aerogenes, pH 6.8; read-out: Minimum Inhibitory Concentration, Ea.
[8] abbreviates: Klebsiella aerogenes, pH 8.2; read-out: Minimum Inhibitory Concentration, Ea.
[9] abbreviates: Escherichia coli, pH 6.8; read-out: Minimum Inhibitory Concentration, Ec.
Setting [10] is: Escherichia coli, pH 8.2; read-out: Minimum Inhibitory Concentration, Ec.
The mark [11] stands for this setting: Salmonella enterica, CHOLERAESUIS, pH 6.8; read-out: Minimum Inhibitory Concentration, Sc.
Setting [12] is: Salmonella enterica, CHOLERAESUIS, pH 8.2; read-out: Minimum Inhibitory Concentration, Sc.
The mark [13] stands for this setting: Klebsiella aerogenes, pH 6.8, read-out: Minimum Inhibitory Concentration, Ea.
Setting [14] is: Escherichia coli, pH 8.2, read-out: Minimum Inhibitory Concentration, Ec.

Values after ≈ are worked out from the molar mass of the structure shown. Like-named read-outs stand apart in the source and are kept apart here.

Consider `N#CC#CSC1CCCC1` [C, 3-cyclopentylthio-2-propynenitrile], for which the MIC is 100 µg/mL (≈ 661 µM) in [1] (setting [7]); 100 µg/mL (≈ 661 µM) in [1] (setting [8]); below 10 µg/mL with Escherichia coli (Ec) (setting [9]); below 10 µg/mL with Escherichia coli (Ec) (setting [10]); below 10 µg/mL in assay [2] (setting [11]); 25 µg/mL (≈ 165 µM) in [2] (setting [12]). Moreover, the MIC in the assay with Aspergillus niger (An) (malt yeast agar) is 2.5 µg/mL (≈ 16.5 µM); in assay [3] (malt yeast agar), below 1 µg/mL; in assay [4], 2.5 µg/mL (≈ 16.5 µM). For the same compound, the MEC in assay [5] and in assay [6] was 100 ppm each time.

Turning to `CSC=C(Cl)C#N` [Compound G, 2-chloro-3-(methylthio)-2-propenenitrile], the MIC in assay [1] (setting [13]) was found to be 50 µg/mL (≈ 374 µM); in assay [1] (Klebsiella aerogenes, pH 8.2, read-out: Minimum Inhibitory Concentration, Ea), 10 µg/mL (≈ 74.8 µM); with Escherichia coli (Ec) (Escherichia coli, pH 6.8, read-out: Minimum Inhibitory Concentration, Ec) it was 50 µg/mL (≈ 374 µM); in the assay on Escherichia coli (Ec) (setting [14]) it was 10 µg/mL (≈ 74.8 µM); in assay [2] (Salmonella enterica, CHOLERAESUIS, pH 6.8, read-out: Minimum Inhibitory Concentration, Sc) it was 50 µg/mL (≈ 374 µM); in assay [2] (Salmonella enterica, CHOLERAESUIS, pH 8.2, read-out: Minimum Inhibitory Concentration, Sc) it was 5 µg/mL (≈ 37.4 µM). Also, the MIC in the assay on Aspergillus niger (An) was 50 µg/mL (≈ 374 µM); in the assay on Candida albicans (Ca), 50 µg/mL (≈ 374 µM); in assay [3], 50 µg/mL (≈ 374 µM); in [4] it was 100 µg/mL (≈ 748 µM).

For `N#CC#CSc1ccc(Cl)cc1` [D, 3-(4-chlorophenylthio)-2-propynenitrile], the MIC in assay [1] (setting [7]) was below 10 µg/mL; in assay [1] (setting [8]), 50 µg/mL (≈ 258 µM); in the assay on Escherichia coli (Ec) (setting [9]), below 10 µg/mL; in the assay with Escherichia coli (Ec) (setting [10]) it was 50 µg/mL (≈ 258 µM); in assay [2] (setting [11]), below 10 µg/mL; in assay [2] (setting [12]) it was 50 µg/mL (≈ 258 µM). Besides, the MIC (with Aspergillus niger (An) (malt yeast agar); with Candida albicans (Ca) (malt yeast agar); in [3] (malt yeast agar); in [4] (malt yeast agar)) was below 1 µg/mL each time. Further, the MEC in assay [5] and in [6] was 100 ppm in each case.

As for `CSC#CC#N` [Compound A, 3-methylthio-2-propynenitrile], the MIC came to 2.5 µg/mL (≈ 25.7 µM) in assay [1] (setting [7]); 25 µg/mL (≈ 257 µM) in [1] (setting [8]); 2.5 µg/mL (≈ 25.7 µM) in the assay with Escherichia coli (Ec) (setting [9]); 5 µg/mL (≈ 51.5 µM) with Escherichia coli (Ec) (setting [10]); 2.5 µg/mL (≈ 25.7 µM) in assay [2] (setting [11]); 5 µg/mL (≈ 51.5 µM) in assay [2] (setting [12]). The MIC was found to be 2.5 µg/mL (≈ 25.7 µM) with Aspergillus niger (An) (malt yeast agar), 0.5 µg/mL (≈ 5.15 µM) in the assay on Candida albicans (Ca) (malt yeast agar), 0.25 µg/mL (≈ 2.57 µM) in assay [3] (malt yeast agar) and 0.5 µg/mL (≈ 5.15 µM) in [4] (malt yeast agar). The “Minimum Inhibitory Concentration, Ec” value in the assay on Escherichia coli (Ec) (pH 8.2) stood at 5 ppm. Besides, in assay [2] (pH 8.2), the “Minimum Inhibitory Concentration, Sc” value came to 5 ppm. The MEC in assay [5] and in assay [6] was 10 ppm throughout.

In the case of `CCSC#CC#N` [B, 3-ethylthio-2-propynenitrile], the MIC in [1] (setting [13]) stood at 25 µg/mL (≈ 225 µM); in [1] (setting [8]), 25 µg/mL (≈ 225 µM); in the assay on Escherichia coli (Ec) (setting [9]), 5 µg/mL (≈ 45 µM); in the assay with Escherichia coli (Ec) (setting [14]) it was 10 µg/mL (≈ 90 µM); in assay [2] (setting [11]), 5 µg/mL (≈ 45 µM); in [2] (setting [12]), 10 µg/mL (≈ 90 µM). The MIC in the assay on Aspergillus niger (An) (malt yeast agar) was 2.5 µg/mL (≈ 22.5 µM); with Candida albicans (Ca) (malt yeast agar) it was below 1 µg/mL; in [3] (malt yeast agar), below 1 µg/mL; in [4] (malt yeast agar) it was below 1 µg/mL. For the same compound, the MEC in assay [5] and in [6] was 25 ppm in each case.

Source of the values: patent US5198445A, “Composition and use of substituted 3-thio-2-propynenitriles as industrial antimicrobials” (The Dow Chemical Company, priority 1992, dated 1993).
